# Reference: article PMC4965013, “Open Source Drug Discovery with the Malaria Box Compound Collection for Neglected Diseases and Beyond” (PLoS Pathogens, 2016)
# Key:
# [1] = tested on: P. falciparum 3D7 trophozoites; assay: Metabolomic fingerprint profiling LC-MS; type: cell-based, Plasmodium falciparum; design: UDP-D-glucose / ADP-D-glucose: unit not given here; conditions: for Acetyllysine / N-acetyl-L-ornithine / N-carbamoyl-L-aspartate / NADPH / dAMP / dCMP / dTDP / dTMP / dTTP / dihydroorotate / orotate / DLH / DLS/SDL/SID / PD / PEE / PVNF / 3-phosphoglycerate / ADP-D-glucose / ATP / CDP / D-sedoheptulose-1/7-phosphate / FAD / GMP / NAD+ / NADP+ / Octoluse Bisphosphate / Pyroglutamic acid / UDP-D-glucose / UDP-D-glucuronate / UDP-N-acetyl-glucosamine / UDP / UMP / UTP / a-ketoglutarate / citrate/isocitrate / cytidine / dATP / dGMP/AMP / fumarate / glucose-1/6-phosphate / glycerate / guanine / guanosine / hypoxanthine / indole / inosine / nicotinate / ornithine / phosphoenolpyruvate / pyruvate / ribose-phosphate / sarcosine/alanine / sn-glycerol-3-phosphate / succinate/methylmalonic acid / uridine / xanthosine: S2 Table Metabolomics; for Acetyllysine: metabolite Acetyllysine; for N-acetyl-L-ornithine: metabolite N-acetyl-L-ornithine; for N-carbamoyl-L-aspartate: metabolite N-carbamoyl-L-aspartate; for NADPH: metabolite NADPH; for dAMP: metabolite dAMP; for dCMP: metabolite dCMP; for dTDP: metabolite dTDP; for dTMP: metabolite dTMP; for dTTP: metabolite dTTP; for dihydroorotate: metabolite dihydroorotate; for orotate: metabolite orotate; for DLH: peptide DLH; for DLS/SDL/SID: peptide DLS/SDL/SID; for PD: peptide PD; for PEE: peptide PEE; for PVNF: peptide PVNF; for 3-phosphoglycerate: metabolite 3-phosphoglycerate; for ADP-D-glucose: metabolite ADP-D-glucose; for ATP: metabolite ATP; for CDP: metabolite CDP; for CDP / D-sedoheptulose-1/7-phosphate / GMP / Octoluse Bisphosphate / UDP / UMP / UTP / citrate/isocitrate / dGMP/AMP / fumarate / glucose-1/6-phosphate / glycerate / guanine / guanosine / inosine / pyruvate / sarcosine/alanine / succinate/methylmalonic acid / uridine / xanthosine: change in metabolite level after compound treatment; for D-sedoheptulose-1/7-phosphate: metabolite D-sedoheptulose-1/7-phosphate; for FAD: metabolite FAD; for GMP: metabolite GMP; for NAD+: metabolite NAD+; for NADP+: metabolite NADP+; for Octoluse Bisphosphate: metabolite Octoluse Bisphosphate; for Pyroglutamic acid: metabolite Pyroglutamic acid; for UDP-D-glucose: metabolite UDP-D-glucose; for UDP-D-glucuronate: metabolite UDP-D-glucuronate; for UDP-N-acetyl-glucosamine: metabolite UDP-N-acetyl-glucosamine; for UDP: metabolite UDP; for UMP: metabolite UMP; for UTP: metabolite UTP; for a-ketoglutarate: metabolite a-ketoglutarate; for citrate/isocitrate: metabolite citrate/isocitrate; for cytidine: metabolite cytidine; for dATP: metabolite dATP; for dGMP/AMP: metabolite dGMP/AMP; for fumarate: metabolite fumarate; for glucose-1/6-phosphate: metabolite glucose-1/6-phosphate; for glycerate: metabolite glycerate; for guanine: metabolite guanine; for guanosine: metabolite guanosine; for hypoxanthine: metabolite hypoxanthine; for indole: metabolite indole; for inosine: metabolite inosine; for 2_3-Diphosphoglyceric acid / 4-phosphopantothenate / 6-phospho-D-gluconate / FMN / IMP / Pyrophosphate / Sedoheptoluse bisphosphate / cyclic-AMP / glutathione disulfide / lactate / myo-inositol: metabolite level change after treatment; for nicotinate: metabolite nicotinate; for ornithine: metabolite ornithine; for phosphoenolpyruvate: metabolite phosphoenolpyruvate; for pyruvate: metabolite pyruvate; for ribose-phosphate: metabolite ribose-phosphate; for sarcosine/alanine: metabolite sarcosine/alanine; for sn-glycerol-3-phosphate: metabolite sn-glycerol-3-phosphate; for succinate/methylmalonic acid: metabolite succinate/methylmalonic acid; for uridine: metabolite uridine; for xanthosine: metabolite xanthosine
# [2] = tested on: P. falciparum; assay: EC50 listed in S2 Table Metabolomics (used to set the concentration tested); type: cell-based; conditions: Plasmodium falciparum; EC50 used for Factor_XEC50 in metabolomics; read-out: EC50_nM
smiles,measurement,setting,value
CCOC(=O)c1ccc2nc(-c3ccccc3)cc(O)c2c1 [MMV006457],Acetyllysine,[1],-0.3384
same,N-acetyl-L-ornithine,[1],-0.3139
same,N-carbamoyl-L-aspartate,[1],4.351
same,NADPH,[1],0.6352
same,dAMP,[1],-0.4724
same,dCMP,[1],-0.3312
same,dTDP,[1],-1.515
same,dTMP,[1],-1.363
same,dTTP,[1],-1.304
same,dihydroorotate,[1],4.958
same,orotate,[1],-1.367
same,DLH,[1],-0.4882
same,DLS/SDL/SID,[1],-0.4763
same,PD,[1],0.2786
same,PEE,[1],-0.4235
same,PVNF,[1],-0.7922
same,3-phosphoglycerate,[1],0.07595
same,ADP-D-glucose,[1],0.02112
same,ATP,[1],0.06279
same,CDP,[1],-1.282
same,D-sedoheptulose-1/7-phosphate,[1],-0.2959
same,FAD,[1],0.202
same,GMP,[1],0.5528
same,NAD+,[1],0.1474
same,NADP+,[1],-0.1781
same,Octoluse Bisphosphate,[1],-0.2401
same,Pyroglutamic acid,[1],0.01503
same,UDP-D-glucose,[1],0.02564
same,UDP-D-glucuronate,[1],-0.1377
same,UDP-N-acetyl-glucosamine,[1],-0.1506
same,UDP,[1],-1.814
same,UMP,[1],-1.819
same,UTP,[1],-1.644
same,a-ketoglutarate,[1],-0.2281
same,citrate/isocitrate,[1],-0.877
same,cytidine,[1],0.9143
same,dATP,[1],0.2755
same,dGMP/AMP,[1],-0.2048
same,fumarate,[1],0.4222
same,glucose-1/6-phosphate,[1],0.1449
same,glycerate,[1],-0.03038
same,guanine,[1],0.7811
same,guanosine,[1],0.4264
same,hypoxanthine,[1],0.2443
same,indole,[1],0.3097
same,inosine,[1],0.319
same,2_3-Diphosphoglyceric acid,[1],-0.1036
same,4-phosphopantothenate,[1],-0.4551
same,6-phospho-D-gluconate,[1],0.1425
same,FMN,[1],-0.04566
same,IMP,[1],0.4558
same,Pyrophosphate,[1],0.1188
same,Sedoheptoluse bisphosphate,[1],-0.2455
same,cyclic-AMP,[1],-0.04029
same,glutathione disulfide,[1],0.1448
same,lactate,[1],0.2927
same,myo-inositol,[1],-0.1285
same,nicotinate,[1],0.07641
same,ornithine,[1],0.3647
same,phosphoenolpyruvate,[1],-0.1372
same,pyruvate,[1],-0.1462
same,ribose-phosphate,[1],0.3187
same,sarcosine/alanine,[1],0.6115
same,sn-glycerol-3-phosphate,[1],0.3451
same,succinate/methylmalonic acid,[1],-0.4755
same,uridine,[1],-0.2838
same,xanthosine,[1],-0.0194
same,EC50,[2],118 nM
CC1CN(C(=O)c2sc3ccccc3c2Cl)CC(C)O1 (stereo not drawn) [MMV020492],Acetyllysine,[1],-0.0147
same,N-acetyl-L-ornithine,[1],-0.05191
same,N-carbamoyl-L-aspartate,[1],0.1461
same,NADPH,[1],1.076
same,dAMP,[1],0.05557
same,dCMP,[1],0.1257
same,dTDP,[1],0.2505
same,dTMP,[1],0.3742
same,dTTP,[1],0.08279
same,dihydroorotate,[1],0.2809
same,orotate,[1],0.03682
same,DLH,[1],0.1005
same,DLS/SDL/SID,[1],0.08855
same,PD,[1],0.1297
same,PEE,[1],0.04353
same,PVNF,[1],0.1047
same,3-phosphoglycerate,[1],0.09132
same,ADP-D-glucose,[1],0.03984
same,ATP,[1],0.0738
same,CDP,[1],0.1835
same,D-sedoheptulose-1/7-phosphate,[1],0.08985
same,FAD,[1],0.03625
same,GMP,[1],0.3386
same,NAD+,[1],0.04927
same,NADP+,[1],0.004356
same,Octoluse Bisphosphate,[1],0.06954
same,Pyroglutamic acid,[1],0.3822
same,UDP-D-glucose,[1],0.04537
same,UDP-D-glucuronate,[1],-0.02953
same,UDP-N-acetyl-glucosamine,[1],0.08846
same,UDP,[1],0.2013
same,UMP,[1],0.2191
same,UTP,[1],0.01852
same,a-ketoglutarate,[1],0.02481
same,citrate/isocitrate,[1],-0.02888
same,cytidine,[1],-0.05556
same,dATP,[1],-0.009271
same,dGMP/AMP,[1],0.09845
same,fumarate,[1],0.08721
same,glucose-1/6-phosphate,[1],-0.03526
same,glycerate,[1],0.2426
same,guanine,[1],0.0471
same,guanosine,[1],0.114
same,hypoxanthine,[1],-0.07881
same,indole,[1],0.1523
same,inosine,[1],-0.03708
same,2_3-Diphosphoglyceric acid,[1],0.1949
same,4-phosphopantothenate,[1],0.1246
same,6-phospho-D-gluconate,[1],0.07439
same,FMN,[1],0.2041
same,IMP,[1],-0.02839
same,Pyrophosphate,[1],0.1402
same,Sedoheptoluse bisphosphate,[1],0.05967
same,cyclic-AMP,[1],0.07392
same,glutathione disulfide,[1],0.1287
same,lactate,[1],0.06153
same,myo-inositol,[1],0.04445
same,nicotinate,[1],0.03208
same,ornithine,[1],-0.1593
same,phosphoenolpyruvate,[1],0.09247
same,pyruvate,[1],-0.02843
same,ribose-phosphate,[1],-0.3604
same,sarcosine/alanine,[1],0.3511
same,sn-glycerol-3-phosphate,[1],0.4063
same,succinate/methylmalonic acid,[1],0.003908
same,uridine,[1],0.1407
same,xanthosine,[1],0.3607
same,EC50,[2],25.5 nM
COc1ccc(C=C2SC(=N)N(c3ccccc3OC)C2=O)cc1 [MMV666691],Acetyllysine,[1],-0.06113
same,N-acetyl-L-ornithine,[1],-0.04858
same,N-carbamoyl-L-aspartate,[1],3.121
same,NADPH,[1],0.04672
same,dAMP,[1],-0.1913
same,dCMP,[1],0.1375
same,dTDP,[1],-0.4485
same,dTMP,[1],-0.268
same,dTTP,[1],-0.128
same,dihydroorotate,[1],3.607
same,orotate,[1],-0.9141
same,DLH,[1],0.157
same,DLS/SDL/SID,[1],0.06441
same,PD,[1],0.6447
same,PEE,[1],0.2278
same,PVNF,[1],0.06954
same,3-phosphoglycerate,[1],-0.08972
same,ADP-D-glucose,[1],0.2678
same,ATP,[1],0.4861
same,CDP,[1],0.2338
same,D-sedoheptulose-1/7-phosphate,[1],0.4395
same,FAD,[1],0.4218
same,GMP,[1],-0.5619
same,NAD+,[1],0.2782
same,NADP+,[1],0.1223
same,Octoluse Bisphosphate,[1],0.2088
same,Pyroglutamic acid,[1],-0.1274
same,UDP-D-glucose,[1],0.2576
same,UDP-D-glucuronate,[1],0.2671
same,UDP-N-acetyl-glucosamine,[1],0.2054
same,UDP,[1],-0.5559
same,UMP,[1],-0.8809
same,UTP,[1],-0.652
same,a-ketoglutarate,[1],-0.2164
same,citrate/isocitrate,[1],-0.06979
same,cytidine,[1],0.2052
same,dATP,[1],0.5778
same,dGMP/AMP,[1],-0.07557
same,fumarate,[1],0.7045
same,glucose-1/6-phosphate,[1],0.363
same,glycerate,[1],0.3396
same,guanine,[1],0.3707
same,guanosine,[1],0.4982
same,hypoxanthine,[1],0.09969
same,indole,[1],0.002472
same,inosine,[1],0.382
same,2_3-Diphosphoglyceric acid,[1],0.1853
same,4-phosphopantothenate,[1],-0.1622
same,6-phospho-D-gluconate,[1],0.4512
same,FMN,[1],0.2558
same,IMP,[1],0.07363
same,Pyrophosphate,[1],0.16
same,Sedoheptoluse bisphosphate,[1],0.2481
same,cyclic-AMP,[1],0.2139
same,glutathione disulfide,[1],0.5647
same,lactate,[1],0.06184
same,myo-inositol,[1],0.08809
same,nicotinate,[1],0.1482
same,ornithine,[1],0.1318
same,phosphoenolpyruvate,[1],-0.1506
same,pyruvate,[1],-0.3002
same,ribose-phosphate,[1],0.1031
same,sarcosine/alanine,[1],0.4028
same,sn-glycerol-3-phosphate,[1],0.3221
same,succinate/methylmalonic acid,[1],0.3253
same,uridine,[1],-0.3469
same,xanthosine,[1],0.6937
same,EC50,[2],168 nM
